Reference: ChEMBL document CHEMBL4033735, “A potent and selective natriuretic peptide receptor-3 blocker 11-mer peptide created by hybridization of musclin and atrial natriuretic peptide” (Bioorg Med Chem Lett, 2017)
Activity calls are given as the source filed them. The rule behind the calls is not given here. Bridge positions count the residues as written; N and C are the ends. Square brackets hold non-standard residues; d marks the D form. Peptide text beside a SMILES is read from it. Cha = N[C@@H](CC1CCCCC1)C(=O)O

Columns and labels:
[1] = molecular target: T1, Atrial natriuretic peptide receptor 3 (Homo sapiens, UniProt P17342); assay: Displacement of [125I]-human ANP from His-tagged and Fc fragment containing human NPR-3 extracellular domain expressed in FreeStyle 293 cells incubated for 2 hrs by top count method; format: cell-based
T1 sequence (P17342 whole entry): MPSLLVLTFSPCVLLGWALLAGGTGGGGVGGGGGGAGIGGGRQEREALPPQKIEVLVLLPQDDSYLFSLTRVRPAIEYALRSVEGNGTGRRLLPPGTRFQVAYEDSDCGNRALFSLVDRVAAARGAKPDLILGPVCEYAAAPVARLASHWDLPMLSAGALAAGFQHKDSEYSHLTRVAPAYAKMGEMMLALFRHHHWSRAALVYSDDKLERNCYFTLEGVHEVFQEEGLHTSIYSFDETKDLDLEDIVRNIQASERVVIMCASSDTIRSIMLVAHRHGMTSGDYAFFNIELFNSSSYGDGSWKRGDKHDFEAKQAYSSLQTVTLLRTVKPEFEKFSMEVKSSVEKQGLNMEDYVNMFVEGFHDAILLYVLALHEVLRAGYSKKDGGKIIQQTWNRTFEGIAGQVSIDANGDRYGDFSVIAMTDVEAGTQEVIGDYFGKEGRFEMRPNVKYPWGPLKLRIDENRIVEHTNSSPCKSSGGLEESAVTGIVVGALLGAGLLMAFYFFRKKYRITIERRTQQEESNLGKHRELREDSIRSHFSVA

[2] = Stability in C57BL/6J mouse serum assessed as residual parent compound remaining at 1 mM after 30 mins at 37 degC by HPLC method; format: ADME, cell-free; settings: read-out: Stability
[3] = molecular target: T2, Atrial natriuretic peptide receptor 1 (Homo sapiens, UniProt P16066); assay: Displacement of [125I]-human ANP from human NPR-1 incubated for 2 hrs by top count method
T2 sequence (P16066 whole entry): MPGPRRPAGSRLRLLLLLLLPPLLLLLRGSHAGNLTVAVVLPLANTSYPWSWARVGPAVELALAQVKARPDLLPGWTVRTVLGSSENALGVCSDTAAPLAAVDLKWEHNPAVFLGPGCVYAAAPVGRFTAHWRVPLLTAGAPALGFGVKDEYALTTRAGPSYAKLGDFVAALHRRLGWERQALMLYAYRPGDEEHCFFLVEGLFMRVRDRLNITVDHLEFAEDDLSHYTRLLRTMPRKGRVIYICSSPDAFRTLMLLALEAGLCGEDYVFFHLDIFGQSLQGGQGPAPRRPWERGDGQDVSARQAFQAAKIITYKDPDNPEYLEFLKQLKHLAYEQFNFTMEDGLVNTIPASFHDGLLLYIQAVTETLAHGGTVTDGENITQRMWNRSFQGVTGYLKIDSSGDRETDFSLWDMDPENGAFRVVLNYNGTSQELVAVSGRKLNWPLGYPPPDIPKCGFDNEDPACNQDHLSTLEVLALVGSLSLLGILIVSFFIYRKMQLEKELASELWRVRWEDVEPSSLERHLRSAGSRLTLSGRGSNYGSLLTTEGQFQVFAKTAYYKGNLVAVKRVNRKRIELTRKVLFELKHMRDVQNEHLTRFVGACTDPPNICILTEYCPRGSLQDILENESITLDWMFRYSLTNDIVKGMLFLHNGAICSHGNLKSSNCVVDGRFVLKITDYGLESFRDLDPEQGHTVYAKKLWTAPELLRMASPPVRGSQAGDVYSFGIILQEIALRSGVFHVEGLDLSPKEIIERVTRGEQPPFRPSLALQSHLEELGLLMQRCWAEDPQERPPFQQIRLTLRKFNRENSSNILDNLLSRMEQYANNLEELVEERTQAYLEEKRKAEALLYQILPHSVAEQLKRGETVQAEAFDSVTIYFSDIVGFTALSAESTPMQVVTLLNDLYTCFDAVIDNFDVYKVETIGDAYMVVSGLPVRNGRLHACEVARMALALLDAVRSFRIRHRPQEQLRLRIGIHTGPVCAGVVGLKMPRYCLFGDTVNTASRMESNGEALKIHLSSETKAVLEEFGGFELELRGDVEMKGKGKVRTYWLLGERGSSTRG

[4] = Stability in C57BL/6J mouse serum assessed as residual parent compound remaining at 1 mM after 60 mins at 37 degC by HPLC method; format: ADME, cell-free; settings: read-out: Stability
[5] = Stability in 10% C57BL/6J mouse serum/phosphate-buffered saline assessed as residual parent compound remaining at 1 mM after 60 mins at 37 degC by HPLC method; format: ADME, cell-free; settings: 10% mouse serum in phosphate-buffered saline, read-out: Stability
[6] = Stability in 10% C57BL/6J mouse serum/phosphate-buffered saline assessed as residual parent compound remaining at 1 mM after 30 mins at 37 degC by HPLC method; format: ADME, cell-free; settings: 10% mouse serum in phosphate-buffered saline, read-out: Stability
[7] = test system: Mus musculus; assay: Increase in cGMP production C57BL/6J mouse blood at 1 umol/kg/day, sc administered via infusion from implanted osmotic pumps for 7 days and co-dosed with 1 umol/kg/day mANP by enzyme immunoassay; format: functional, organism-based
[8] = test system: Mus musculus; assay: Increase in cGMP production C57BL/6J mouse blood at 1 umol/kg/day, sc administered via infusion from implanted osmotic pumps for 7 days by enzyme immunoassay; format: functional, organism-based
[9] = Drug level in mouse blood at 300 nmol/kg/day dosed as continuous administration for 3 days; format: ADME, organism-based; settings: whole blood, read-out: Drug uptake
[10] = Drug level in mouse blood at 1000 nmol/kg/day dosed as continuous administration for 3 days; format: ADME, organism-based; settings: whole blood, read-out: Drug uptake
[11] = molecular target: T3, Atrial natriuretic peptide receptor 3 (Mus musculus) (UniProt P70180); assay: Activity at NPR-3 in C57BL/6J mouse primary adipocytes assessed as increase in mANP-stimulated cGMP production at 1 uM pre-incubated for 30 mins before mANP stimulation for 15 mins by enzyme immunoassay; format: cell-based
T3 sequence (whole entry): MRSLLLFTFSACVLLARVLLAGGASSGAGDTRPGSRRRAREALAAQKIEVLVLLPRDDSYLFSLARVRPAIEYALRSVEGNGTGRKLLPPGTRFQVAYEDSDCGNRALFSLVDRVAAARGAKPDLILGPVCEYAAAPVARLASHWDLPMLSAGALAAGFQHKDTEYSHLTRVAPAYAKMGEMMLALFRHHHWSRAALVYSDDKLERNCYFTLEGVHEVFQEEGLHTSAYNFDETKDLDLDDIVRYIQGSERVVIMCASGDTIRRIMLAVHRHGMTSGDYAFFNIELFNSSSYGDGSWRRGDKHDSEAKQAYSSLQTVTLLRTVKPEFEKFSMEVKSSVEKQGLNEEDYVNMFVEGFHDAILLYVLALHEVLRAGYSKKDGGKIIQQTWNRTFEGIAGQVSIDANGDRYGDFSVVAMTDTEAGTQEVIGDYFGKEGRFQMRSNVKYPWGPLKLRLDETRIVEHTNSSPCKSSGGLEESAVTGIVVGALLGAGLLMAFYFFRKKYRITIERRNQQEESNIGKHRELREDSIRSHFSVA

[12] = Stability in C57BL/6J mouse serum assessed as residual parent compound remaining at 1 mM after 4 hrs at 37 degC by HPLC method; format: ADME, cell-free; settings: read-out: Stability
[13] = Stability in C57BL/6J mouse serum assessed as residual parent compound remaining at 1 mM after 2 hrs at 37 degC by HPLC method; format: ADME, cell-free; settings: read-out: Stability
[14] = test system: Serum; assay: Stability in C57BL/6J mouse serum at 1 mM up to 4 hrs at 37 degC by HPLC method; format: ADME, cell-free; settings: 1000 µM

Row | SMILES | IC50 [1] [nM] | remaining at 0.5 h, 1000 µM [2] [%] | IC50 [3] [nM] | remaining at 1 h, 1000 µM [4] [%] | remaining at 1 h, 1000 µM [5] [%] | remaining at 0.5 h, 1000 µM [6] [%] | Activity [7] | Activity [8] | concentration at 72 h [9] [nM] | concentration at 72 h [10] [nM] | Activity [11] | remaining at 4 h, 1000 µM [12] [%] | remaining at 2 h, 1000 µM [13] [%] | Stability [14]
1 | CC[C@H](C)[C@H](NC(=O)[C@H](CCCNC(=N)N)NC(=O)[C@H](CC(=O)O)NC(=O)[C@@H](NC(=O)[C@@H]1CCCN1C(=O)CNC(=O)[C@@H](C)NC(=O)[C@H](CC1CCCCC1)NC(=O)[C@H]1CCCN1C(=O)[C@H](CO)NC(=O)[C@@H](Cc1ccccc1)NC(C)=O)[C@@H](C)CC)C(N)=O | 0.054 | 81 | > 1000 | 68 |  |  |  |  |  |  |  |  |  | 
2 | CC[C@H](C)[C@H](NC(=O)[C@H](CCCNC(=N)N)NC(=O)[C@H](CC(=O)O)NC(=O)[C@@H](NC(=O)[C@H](CCCNC(=N)N)NC(=O)CNC(=O)CNC(=O)[C@H](CC1CCCCC1)NC(=O)CNC(=O)[C@H](CO)NC(=O)[C@H](N)Cc1ccccc1)[C@@H](C)CC)C(=O)NCC(N)=O | 0.12 |  | > 1000 |  | 80 | 100 |  |  |  |  |  |  |  | 
3 | CC[C@H](C)[C@H](NC(=O)[C@H](CCCNC(=N)NC)NC(=O)[C@H](CC(=O)O)NC(=O)[C@@H](NC(=O)[C@@H]1C[C@@H](O)CN1C(=O)CNC(=O)[C@@H](CO)NC(=O)[C@H](CC1CCCCC1)NC(=O)[C@H]1C[C@H](O)CN1C(=O)[C@H](CO)NC(=O)[C@@H](Cc1ccccc1)NC(=O)CO)[C@@H](C)CC)C(=O)NC | 0.079 |  | > 1000 |  |  |  | Active | Active | 10.1 | 40.5 | Active | 92 | 107 | 
4 | CC[C@H](C)[C@H](NC(=O)[C@H](CCCNC(=N)N)NC(=O)[C@H](CC(=O)O)NC(=O)[C@@H](NC(=O)[C@@H]1CCCN1C(=O)CNC(=O)[C@@H](C)NC(=O)[C@H](CC1CCCCC1)NC(=O)[C@H]1CCCN1C(=O)[C@H](CO)NC(=O)[C@@H](Cc1ccccc1)NC(C)=O)[C@@H](C)CC)C(=O)NC | 0.087 | 86 | > 1000 | 74 |  |  |  |  |  |  |  |  |  | 
5 | CC[C@H](C)[C@H](NC(=O)[C@H](CCCNC(=N)NC)NC(=O)[C@H](CC(=O)O)NC(=O)[C@@H](NC(=O)[C@@H]1C[C@@H](O)CN1C(=O)CNC(=O)[C@@H](C)NC(=O)[C@H](CC1CCCCC1)NC(=O)[C@H]1C[C@H](O)CN1C(=O)[C@H](CO)NC(=O)[C@@H](Cc1ccccc1)NC(C)=O)[C@@H](C)CC)C(=O)NC | 0.099 |  | > 1000 |  |  |  |  |  |  |  |  | 102 | 100 | Stable
6 | CC[C@H](C)[C@@H]1NC(=O)[C@H](CCCNC(=N)N)NC(=O)[C@H](CC(=O)O)NC(=O)[C@H]([C@@H](C)CC)NC(=O)[C@H](CCCNC(=N)N)NC(=O)CNC(=O)CNC(=O)[C@H](Cc2ccccc2)NC(=O)[C@@H](NC(=O)[C@H](CO)NC(=O)[C@H](CO)NC(=O)[C@@H](N)CCCNC(=N)N)CSSC[C@@H](C(=O)O)NC(=O)[C@H](C)NC(=O)CNC1=O (H-RSSCFGGRIDRIGAC-OH; disulfide 4-15) | 0.51 |  | > 1000 |  | 2 | 4 |  |  |  |  |  |  |  | 
7 | CC[C@H](C)[C@H](NC(=O)[C@H](CCCNC(=N)NC)NC(=O)[C@H](CC(=O)O)NC(=O)[C@@H](NC(=O)[C@@H]1CCCN1C(=O)CNC(=O)[C@@H](C)NC(=O)[C@H](CC1CCCCC1)NC(=O)[C@H]1CCCN1C(=O)[C@H](CO)NC(=O)[C@@H](Cc1ccccc1)NC(C)=O)[C@@H](C)CC)C(=O)NC | 0.14 | 91 | > 1000 | 84 |  |  |  |  |  | 13.7 |  | 62 | 77 | 
8 | CC[C@H](C)[C@H](NC(=O)[C@H](CCCNC(=N)N)NC(=O)[C@H](CC(=O)O)NC(=O)[C@@H](NC(=O)[C@H](CCCNC(=N)N)NC(=O)CNC(=O)CNC(=O)[C@H](CC1CCCCC1)NC(=O)CNC(=O)[C@H](CO)NC(=O)[C@H](Cc1ccccc1)NC(=O)[C@H](CO)NC(=O)[C@@H](N)CCCNC(=N)N)[C@@H](C)CC)C(=O)NCC(N)=O (H-RSFSG[Cha]GGRIDRIG-NH2) | 0.3 |  | > 1000 |  | 0 | 5 |  |  |  |  |  |  |  | 
